In US20140163023A1, “DIHYDROPYRROLO PYRIMIDINE DERIVATIVES AS MTOR INHIBITORS” (Cellzome Limited, priority 2011, published 2014):

Key:
PI3Kα = target: T1, PI3Kα (Homo sapiens, UniProt P42336); experiment: kinobeads assay, PI3Kα; type: binding; conditions: 1:1 mix of Jurkat and Ramos cell lysates, read-out: Inhibition values (IC50 in μM) as determined in the kinobeads assay, PI3Kα
T1 construct: endogenous in cells; host or cells: Jurkat (ATCC TIB-152, clone E6-1) and Ramos (ATCC CRL-1596), 1:1 lysate mix
In short: (§1)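 Inhibitor at serial dilutions (1:3, 9 steps) competed for binding to an affinity matrix of two immobilized ligands in a 1:1 Jurkat/Ramos lysate at 5 mg/ml protein, 2 h in a cold room. Bound kinases were eluted, quantified by antibody dot blot with infrared detection, and IC50 was taken from dose-response curves.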

PI3Kδ = target: T2, PI3Kδ (Homo sapiens, UniProt O00329); experiment: kinobeads assay, PI3Kδ; type: binding; conditions: 1:1 mix of Jurkat and Ramos cell lysates, read-out: Inhibition values (IC50 in μM) as determined in the kinobeads assay, PI3Kδ
T2 construct: endogenous in cells; host or cells: Jurkat (ATCC TIB-152, clone E6-1) and Ramos (ATCC CRL-1596), 1:1 lysate mix
In short: as §1

PI3Kβ = target: T3, PI3Kβ (Homo sapiens, UniProt P42338); experiment: kinobeads assay, PI3Kβ; type: binding; conditions: 1:1 mix of Jurkat and Ramos cell lysates, read-out: Inhibition values (IC50 in μM) as determined in the kinobeads assay, PI3Kβ
T3 construct: endogenous in cells; host or cells: Jurkat (ATCC TIB-152, clone E6-1) and Ramos (ATCC CRL-1596), 1:1 lysate mix
In short: as §1

PI3Kγ = target: T4, PI3Kγ (Homo sapiens, UniProt P48736); experiment: kinobeads assay, PI3Kγ; type: binding; conditions: 1:1 mix of Jurkat and Ramos cell lysates, read-out: Inhibition values (IC50 in μM) as determined in the kinobeads assay, PI3Kγ
T4 construct: endogenous in cells; host or cells: Jurkat (ATCC TIB-152, clone E6-1) and Ramos (ATCC CRL-1596), 1:1 lysate mix
In short: as §1

mTOR = target: T5, mTOR (Homo sapiens, UniProt P42345); experiment: mTOR kinobeads assay (competition binding in cell lysate, dot blot detection); conditions: 1:1 mix of Jurkat and Ramos cell lysates, read-out: Inhibition values (IC50 in μM) as determined in the kinobeads assay, mTor
T5 construct: endogenous in cells; host or cells: Jurkat (ATCC TIB-152, clone E6-1) and Ramos (ATCC CRL-1596), 1:1 lysate mix
In short: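 Competition binding in a 1:1 mix of Jurkat and Ramos cell lysates at 5 mg/ml total protein, with compounds in a 1:3 dilution series and an affinity matrix of two immobilized ligands, 2 h in the cold with shaking. mTOR captured on the beads was eluted and quantified by antibody dot blot with infrared detection. IC50 came from dose-response curves.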

[1] = target: T6, DNA-dependent protein kinase (DNA-PK) (Homo sapiens, UniProt P78527); experiment: kinobeads assay, DNA-PK; type: binding; conditions: 1:1 mix of Jurkat and Ramos cell lysates, read-out: Inhibition values (IC50 in μM) as determined in the kinobeads assay, DNA-PK
T6 construct: endogenous in cells; host or cells: Jurkat (ATCC TIB-152, clone E6-1) and Ramos (ATCC CRL-1596), 1:1 lysate mix
In short: as §1

T2 sequence (O00329 whole entry): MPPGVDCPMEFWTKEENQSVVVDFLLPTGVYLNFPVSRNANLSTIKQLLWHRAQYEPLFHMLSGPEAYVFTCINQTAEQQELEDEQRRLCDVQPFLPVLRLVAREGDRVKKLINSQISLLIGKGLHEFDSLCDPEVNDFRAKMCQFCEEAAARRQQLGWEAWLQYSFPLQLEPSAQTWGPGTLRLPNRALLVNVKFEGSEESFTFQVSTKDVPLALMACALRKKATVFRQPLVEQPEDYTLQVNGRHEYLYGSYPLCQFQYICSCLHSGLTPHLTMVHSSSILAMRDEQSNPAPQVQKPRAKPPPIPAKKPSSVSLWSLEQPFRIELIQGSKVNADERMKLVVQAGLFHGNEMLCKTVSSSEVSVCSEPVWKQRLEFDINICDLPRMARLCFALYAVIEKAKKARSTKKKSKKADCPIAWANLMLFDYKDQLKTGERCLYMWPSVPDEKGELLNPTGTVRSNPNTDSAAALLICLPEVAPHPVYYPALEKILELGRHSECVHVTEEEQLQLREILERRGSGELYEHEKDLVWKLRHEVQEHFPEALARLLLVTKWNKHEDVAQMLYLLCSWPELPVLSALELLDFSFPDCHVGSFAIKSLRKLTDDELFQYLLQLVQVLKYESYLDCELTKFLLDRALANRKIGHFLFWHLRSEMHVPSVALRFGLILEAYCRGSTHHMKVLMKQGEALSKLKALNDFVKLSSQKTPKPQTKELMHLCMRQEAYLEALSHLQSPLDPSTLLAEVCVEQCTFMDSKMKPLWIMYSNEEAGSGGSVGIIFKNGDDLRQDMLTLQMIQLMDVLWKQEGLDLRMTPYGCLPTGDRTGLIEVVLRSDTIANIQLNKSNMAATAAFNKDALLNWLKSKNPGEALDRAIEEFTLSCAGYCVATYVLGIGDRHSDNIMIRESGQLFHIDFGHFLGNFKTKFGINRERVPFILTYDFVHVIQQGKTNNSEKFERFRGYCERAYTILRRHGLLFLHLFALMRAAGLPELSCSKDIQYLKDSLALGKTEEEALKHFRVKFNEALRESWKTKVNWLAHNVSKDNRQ
T2 sequence (P27986 whole entry partner): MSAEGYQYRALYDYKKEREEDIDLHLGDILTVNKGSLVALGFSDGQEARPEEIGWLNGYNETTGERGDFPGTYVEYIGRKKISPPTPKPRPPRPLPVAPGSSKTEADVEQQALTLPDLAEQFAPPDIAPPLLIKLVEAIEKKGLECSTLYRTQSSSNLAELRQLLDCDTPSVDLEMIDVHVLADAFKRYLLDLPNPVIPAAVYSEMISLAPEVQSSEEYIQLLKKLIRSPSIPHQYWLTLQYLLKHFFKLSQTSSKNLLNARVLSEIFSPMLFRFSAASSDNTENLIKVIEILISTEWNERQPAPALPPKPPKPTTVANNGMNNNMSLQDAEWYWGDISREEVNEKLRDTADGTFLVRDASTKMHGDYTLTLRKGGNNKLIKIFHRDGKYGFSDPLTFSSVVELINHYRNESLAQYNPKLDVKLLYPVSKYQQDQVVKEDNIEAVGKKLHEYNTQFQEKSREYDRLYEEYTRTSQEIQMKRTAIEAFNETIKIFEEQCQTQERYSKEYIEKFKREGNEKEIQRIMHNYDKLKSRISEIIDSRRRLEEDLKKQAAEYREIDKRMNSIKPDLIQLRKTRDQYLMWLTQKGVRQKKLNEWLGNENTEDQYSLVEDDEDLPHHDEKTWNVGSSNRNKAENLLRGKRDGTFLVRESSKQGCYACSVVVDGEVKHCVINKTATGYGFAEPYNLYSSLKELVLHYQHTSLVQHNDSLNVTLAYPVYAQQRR
T4 sequence (P48736 whole entry): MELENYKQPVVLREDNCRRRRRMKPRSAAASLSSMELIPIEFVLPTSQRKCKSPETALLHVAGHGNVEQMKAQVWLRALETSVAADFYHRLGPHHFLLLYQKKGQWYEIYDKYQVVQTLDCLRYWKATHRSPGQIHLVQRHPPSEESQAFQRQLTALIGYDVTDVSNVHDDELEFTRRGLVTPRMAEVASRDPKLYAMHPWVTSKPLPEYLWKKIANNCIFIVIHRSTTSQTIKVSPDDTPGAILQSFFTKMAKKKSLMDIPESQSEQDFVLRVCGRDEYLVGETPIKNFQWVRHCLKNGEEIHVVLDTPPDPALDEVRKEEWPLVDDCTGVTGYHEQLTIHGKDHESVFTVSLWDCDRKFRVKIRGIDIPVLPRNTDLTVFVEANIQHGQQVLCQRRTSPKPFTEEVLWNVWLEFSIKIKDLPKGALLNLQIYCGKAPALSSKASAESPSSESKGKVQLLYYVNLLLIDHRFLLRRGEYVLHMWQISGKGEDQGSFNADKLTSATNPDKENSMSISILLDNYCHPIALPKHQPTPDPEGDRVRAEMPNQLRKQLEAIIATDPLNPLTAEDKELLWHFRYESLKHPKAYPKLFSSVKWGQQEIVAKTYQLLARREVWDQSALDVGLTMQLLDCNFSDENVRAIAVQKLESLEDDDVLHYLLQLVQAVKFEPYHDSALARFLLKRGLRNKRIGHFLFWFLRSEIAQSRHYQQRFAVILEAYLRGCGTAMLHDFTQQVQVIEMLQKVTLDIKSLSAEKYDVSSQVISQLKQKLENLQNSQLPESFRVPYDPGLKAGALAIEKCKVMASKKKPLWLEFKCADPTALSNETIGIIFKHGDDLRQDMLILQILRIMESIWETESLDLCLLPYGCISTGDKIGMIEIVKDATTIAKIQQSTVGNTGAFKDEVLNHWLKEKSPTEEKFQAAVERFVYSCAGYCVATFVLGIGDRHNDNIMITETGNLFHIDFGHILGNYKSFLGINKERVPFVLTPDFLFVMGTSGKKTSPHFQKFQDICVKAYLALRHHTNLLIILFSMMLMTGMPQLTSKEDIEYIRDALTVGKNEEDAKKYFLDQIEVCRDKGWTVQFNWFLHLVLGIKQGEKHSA
T1 sequence (P42336 whole entry): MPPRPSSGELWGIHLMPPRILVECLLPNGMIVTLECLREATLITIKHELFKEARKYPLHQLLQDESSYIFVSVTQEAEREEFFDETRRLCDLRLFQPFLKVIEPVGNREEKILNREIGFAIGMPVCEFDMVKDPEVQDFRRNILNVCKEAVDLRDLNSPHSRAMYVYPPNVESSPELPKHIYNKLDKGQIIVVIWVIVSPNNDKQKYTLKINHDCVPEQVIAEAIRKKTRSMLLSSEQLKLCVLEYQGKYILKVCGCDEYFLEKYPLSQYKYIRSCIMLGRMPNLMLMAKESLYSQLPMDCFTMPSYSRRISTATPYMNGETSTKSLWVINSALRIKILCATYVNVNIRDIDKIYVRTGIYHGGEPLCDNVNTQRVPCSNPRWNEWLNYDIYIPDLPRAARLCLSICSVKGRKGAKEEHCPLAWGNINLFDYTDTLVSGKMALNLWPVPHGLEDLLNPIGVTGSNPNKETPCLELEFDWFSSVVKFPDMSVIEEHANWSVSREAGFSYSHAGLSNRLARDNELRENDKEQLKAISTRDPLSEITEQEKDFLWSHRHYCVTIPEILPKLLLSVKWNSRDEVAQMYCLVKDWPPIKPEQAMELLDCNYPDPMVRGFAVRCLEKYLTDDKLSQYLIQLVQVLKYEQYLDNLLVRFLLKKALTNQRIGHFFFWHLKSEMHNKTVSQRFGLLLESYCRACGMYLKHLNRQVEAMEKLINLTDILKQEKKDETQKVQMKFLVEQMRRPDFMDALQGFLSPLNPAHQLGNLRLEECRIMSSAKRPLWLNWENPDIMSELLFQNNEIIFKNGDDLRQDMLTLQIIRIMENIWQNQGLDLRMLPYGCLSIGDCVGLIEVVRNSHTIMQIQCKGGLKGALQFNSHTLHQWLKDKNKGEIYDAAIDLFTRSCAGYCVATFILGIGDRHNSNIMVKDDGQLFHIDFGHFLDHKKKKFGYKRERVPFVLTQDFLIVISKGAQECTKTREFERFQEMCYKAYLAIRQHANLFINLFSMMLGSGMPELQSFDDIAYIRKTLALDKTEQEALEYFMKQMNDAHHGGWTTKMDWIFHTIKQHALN
T1 sequence (P27986 whole entry partner): as the sequence (P27986 whole entry partner) above
T3 sequence (P42338 whole entry): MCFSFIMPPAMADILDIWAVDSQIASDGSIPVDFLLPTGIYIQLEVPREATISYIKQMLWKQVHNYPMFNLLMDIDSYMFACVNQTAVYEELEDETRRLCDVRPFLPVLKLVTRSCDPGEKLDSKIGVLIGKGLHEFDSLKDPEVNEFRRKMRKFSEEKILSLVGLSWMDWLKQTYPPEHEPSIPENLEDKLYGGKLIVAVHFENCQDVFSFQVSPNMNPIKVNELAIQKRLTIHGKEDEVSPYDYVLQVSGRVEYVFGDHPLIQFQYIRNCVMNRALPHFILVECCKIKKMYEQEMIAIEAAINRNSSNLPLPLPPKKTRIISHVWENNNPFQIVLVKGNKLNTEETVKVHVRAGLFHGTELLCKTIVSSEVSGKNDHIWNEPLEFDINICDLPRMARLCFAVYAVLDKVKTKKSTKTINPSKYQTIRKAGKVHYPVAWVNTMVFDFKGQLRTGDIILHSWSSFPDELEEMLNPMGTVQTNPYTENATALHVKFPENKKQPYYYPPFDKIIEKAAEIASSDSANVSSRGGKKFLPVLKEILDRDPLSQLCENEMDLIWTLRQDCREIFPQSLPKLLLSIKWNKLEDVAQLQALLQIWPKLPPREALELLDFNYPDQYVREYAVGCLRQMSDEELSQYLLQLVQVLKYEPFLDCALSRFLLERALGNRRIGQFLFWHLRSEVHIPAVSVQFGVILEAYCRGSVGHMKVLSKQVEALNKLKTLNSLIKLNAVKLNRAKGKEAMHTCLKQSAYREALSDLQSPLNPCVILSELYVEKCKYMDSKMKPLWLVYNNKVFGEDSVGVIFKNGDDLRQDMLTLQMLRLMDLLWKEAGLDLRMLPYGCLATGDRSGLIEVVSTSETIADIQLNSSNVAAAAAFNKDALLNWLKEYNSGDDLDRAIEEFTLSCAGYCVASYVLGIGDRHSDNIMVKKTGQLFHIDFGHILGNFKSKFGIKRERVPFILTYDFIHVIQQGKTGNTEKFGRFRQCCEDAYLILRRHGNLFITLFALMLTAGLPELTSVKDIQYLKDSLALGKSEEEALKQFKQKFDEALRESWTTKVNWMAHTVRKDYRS
T3 sequence (P27986 whole entry partner): as the sequence (P27986 whole entry partner) above

For `CC(O)CNC(=O)Nc1ccc(-c2nc(N3CCOC[C@@H]3C)nc3c2CN(C(C)C)C3)cc1` (stereo partly drawn) [Example 45, 1-(2-hydroxypropyl)-3-(4-(6-isopropyl-2-((S)-3-methylmorpholino)-6,7-dihydro-5H-pyrrolo[3,4-d]pyrimidin-4-yl)phenyl)urea], the IC50 (PI3Kα) was 10 to 100 µM, the IC50 (PI3Kδ) was over 100 µM and the IC50 (PI3Kβ) was over 100 µM. The IC50 (PI3Kγ) was over 100 µM, the IC50 (mTOR) was 1 to 10 µM and the IC50 [1] was over 100 µM.

`CS(=O)(=O)N1Cc2nc(N3CC4CCC(C3)O4)nc(-c3ccc(NC(=O)NC4CC4)cc3)c2C1` [Example 50, 1-(4-(2-(8-oxa-3-azabicyclo[3.2.1]octan-3-yl)-6-(methylsulfonyl)-6,7-dihydro-5H-pyrrolo[3,4-d]pyrimidin-4-yl)phenyl)-3-cyclopropylurea] showed an IC50 (PI3Kα) of over 100 µM, an IC50 (PI3Kδ) of over 100 µM and an IC50 (PI3Kβ) of over 100 µM. It also gave an IC50 (PI3Kγ) of over 100 µM, an IC50 (mTOR) of 1 to 10 µM and an IC50 [1] of over 100 µM.

In the case of `C[C@H]1COCCN1c1nc2c(c(-c3ccc(NC(=O)NC4CC4)cc3)n1)CN(C(=O)CN(C)C)C2` [Example 20, (S)-1-cyclopropyl-3-(4-(6-(2-(dimethylamino)acetyl)-2-(3-methylmorpholino)-6,7-dihydro-5H-pyrrolo[3,4-d]pyrimidin-4-yl)phenyl)urea], the IC50 (PI3Kα) is reported as over 100 µM, the IC50 (PI3Kδ) is reported as 10 to 100 µM and the IC50 (PI3Kβ) is reported as 10 to 100 µM. For the same molecule, the IC50 (PI3Kγ) was over 100 µM, the IC50 (mTOR) was 1 to 10 µM and the IC50 [1] was over 100 µM.

`C[C@H]1COCCN1c1nc2c(c(-c3ccc(NC(=O)NC4CC4)cc3)n1)CN(C(=O)CC#N)C2` [Example 23, (S)-1-(4-(6-(2-cyanoacetyl)-2-(3-methylmorpholino)-6,7-dihydro-5H-pyrrolo[3,4-d]pyrimidin-4-yl)phenyl)-3-cyclopropylurea] showed an IC50 (PI3Kα) of 10 to 100 µM, an IC50 (PI3Kδ) of 10 to 100 µM and an IC50 (PI3Kβ) of 10 to 100 µM. For the same molecule, the IC50 (PI3Kγ) was over 100 µM, the IC50 (mTOR) was 0.1 to 1 µM and the IC50 [1] was over 100 µM.

With `C[C@H]1COCCN1c1nc2c(c(-c3ccc(NC(=O)NC4CC4)cc3)n1)CN(C(=O)CN)C2` [Example 28, (S)-1-(4-(6-(2-aminoacetyl)-2-(3-methylmorpholino)-6,7-dihydro-5H-pyrrolo[3,4-d]pyrimidin-4-yl)phenyl)-3-cyclopropylurea] the IC50 (PI3Kα) was 10 to 100 µM, the IC50 (PI3Kδ) was 10 to 100 µM and the IC50 (PI3Kβ) was 10 to 100 µM. For the same molecule, the IC50 (PI3Kγ) was 10 to 100 µM, the IC50 (mTOR) was 1 to 10 µM and the IC50 [1] was over 100 µM.

In the case of `CCNC(=O)Nc1ccc(-c2nc(N3CCOCC3)nc3c2CN(C(=O)OCC)C3)cc1` [Example 7, ethyl 4-(4-(3-ethylureido)phenyl)-2-morpholino-5H-pyrrolo[3,4-d]pyrimidine-6(7H)-carboxylate], the IC50 (PI3Kα) is reported as over 100 µM, the IC50 (PI3Kδ) is reported as over 100 µM and the IC50 (PI3Kβ) is reported as over 100 µM. The IC50 (PI3Kγ) was over 100 µM, the IC50 (mTOR) was 1 to 10 µM and the IC50 [1] was over 100 µM.

Work on `CCNC(=O)Nc1ccc(-c2nc(N3CCOC[C@@H]3C)nc3c2CN(C(C)C)C3)cc1` [Example 46, (S)-1-ethyl-3-(4-(6-isopropyl-2-(3-methylmorpholino)-6,7-dihydro-5H-pyrrolo[3,4-d]pyrimidin-4-yl)phenyl)urea 2,2,2-trifluoroacetate] yielded an IC50 (PI3Kα) of over 100 µM, an IC50 (PI3Kδ) of over 100 µM and an IC50 (PI3Kβ) of over 100 µM. It also gave an IC50 (PI3Kγ) of over 100 µM, an IC50 (mTOR) of 1 to 10 µM and an IC50 [1] of over 100 µM.

With `C[C@H]1COCCN1c1nc2c(c(-c3ccc(NC(=O)NC4CC4)cc3)n1)CN(C(=O)C1CCOC1)C2` (stereo partly drawn) [Example 40, 1-cyclopropyl-3-(4-(2-((S)-3-methylmorpholino)-6-(tetrahydrofuran-3-carbonyl)-6,7-dihydro-5H-pyrrolo[3,4-d]pyrimidin-4-yl)phenyl)urea 2,2,2-trifluoroacetate] the IC50 (PI3Kα) was 10 to 100 µM, the IC50 (PI3Kδ) was 10 to 100 µM and the IC50 (PI3Kβ) was 10 to 100 µM. For the same molecule, the IC50 (PI3Kγ) was over 100 µM, the IC50 (mTOR) was 1 to 10 µM and the IC50 [1] was over 100 µM.

`CCNC(=O)Nc1ccc(-c2nc(N3CCOCC3)nc3c2CNC3)cc1` [Example 4, 1-ethyl-3-(4-(2-morpholino-6,7-dihydro-5H-pyrrolo[3,4-d]pyrimidin-4-yl)phenyl)urea] gave an IC50 (PI3Kα) of 1 to 10 µM, an IC50 (PI3Kδ) of 10 to 100 µM and an IC50 (PI3Kβ) of 10 to 100 µM. The IC50 (PI3Kγ) was 10 to 100 µM, the IC50 (mTOR) was 0.1 to 1 µM and the IC50 [1] was 10 to 100 µM.

With `CCNC(=O)N1Cc2nc(N3CCOC[C@@H]3C)nc(-c3ccc(NC(=O)NC4CC4)cc3)c2C1` [Example 17, (S)-4-(4-(3-cyclopropylureido)phenyl)-N-ethyl-2-(3-methylmorpholino)-5H-pyrrolo[3,4-d]pyrimidine-6(7H)-carboxamide] the IC50 (PI3Kα) was 10 to 100 µM, the IC50 (PI3Kδ) was over 100 µM and the IC50 (PI3Kβ) was over 100 µM. The IC50 (PI3Kγ) was over 100 µM, the IC50 (mTOR) was 1 to 10 µM and the IC50 [1] was over 100 µM.

Work on `C[C@H]1COCCN1c1nc2c(c(-c3ccc(NC(=O)NCCO)cc3)n1)CNC2` [Example 19, (S)-1-(2-hydroxyethyl)-3-(4-(2-(3-methylmorpholino)-6,7-dihydro-5H-pyrrolo[3,4-d]pyrimidin-4-yl)phenyl)urea] yielded an IC50 (PI3Kα) of 1 to 10 µM, an IC50 (PI3Kδ) of 10 to 100 µM and an IC50 (PI3Kβ) of 10 to 100 µM. The IC50 (PI3Kγ) was 1 to 10 µM, the IC50 (mTOR) was at most 0.1 µM and the IC50 [1] was 10 to 100 µM.

Work on `NC(=O)Nc1ccc(-c2nc(N3CCOCC3)nc3c2CNC3)cc1` [Example 6, 1-(4-(2-morpholino-6,7-dihydro-5H-pyrrolo[3,4-d]pyrimidin-4-yl)phenyl)urea] yielded an IC50 (PI3Kα) of 1 to 10 µM, an IC50 (PI3Kδ) of 1 to 10 µM and an IC50 (PI3Kβ) of 1 to 10 µM. It also gave an IC50 (PI3Kγ) of 1 to 10 µM, an IC50 (mTOR) of 0.1 to 1 µM and an IC50 [1] of 10 to 100 µM.
